What all share (format): cell-based
Test [1] relates to eight human cancer cell lines. The test is described as follows: Average cytotoxicity across the human cancer cell line panel. The source says:
(§1) Five serial 1:2 dilutions were made with anhydrous DMSO at 100× the final concentration used in the assay.

The subject of test [2] is MCF7 (human breast carcinoma) cells. The test is described as follows: Cell Titer-Glo cytotoxicity assay, MCF7. The following applies: inferred from racemate 13 vs 2.
Description: as §1
A general note: ATP-based viability assays read luminescence as a measure of living cells.

The subject of test [3] is NCI-H460 (human breast carcinoma) cells. Nature of the test: Cell Titer-Glo cytotoxicity assay, NCI-H460. Particulars: inferred from racemate 13 vs 2.
Description: as §1

The test system of test [4] is NCI/ADR RES (human breast carcinoma) cells. Nature of the test: Cell Titer-Glo cytotoxicity assay, NCI/ADR-RES.
Description: as §1

From US20130116203A1, “ISOTHIOCYNATES AND GLUCOSINOLATE COMPOUNDS AND ANTI-TUMOR COMPOSITIONS CONTAINING SAME” (priority 2011, published 2013) come the findings set out here.

Consider `S=C=NCc1ccccc1` [Compound 23, 1-(isothiocyanatomethyl)benzene], for which the “fold increase in potency over fully-saturated 18” value in test [1] (average IC50 compared) is above 3 fold.

Consider `C[S@+]([O-])CCCCN=C=S` [D-sulforaphane], for which the “% bioactive” value in test [2] is 0%; in test [3] it was 14%; in test [4] (NCI/ADR RES, inferred from racemate 13 vs 2) it was 9%.

On to `S=C=NCc1cccnc1` [Compound 22, 3-(isothiocyanatomethyl)pyridine], for which the “fold increase in potency over 23” value in test [4] (NCI/ADR RES cells) was at most 10 fold. Besides, in test [1] (potency in NCI/ADR RES and selectivity over NmuMG taken together), the “increase in effectiveness relative to L-sulforaphane” value was around 30 fold.
